Data reported in patent US8999892B2, “Use of S-abscisic acid for improving fruit set and producing parthenocarpic fruits and as a growth inhibitor” (Globachem, priority 2004, dated 2015).

Legend:
Type in all cases: in vivo
[1] = test system: apple trees, variety Jonagored; test: Promoting fruit set in pome fruit, orchard spray trial 2003; conditions: 2 g/ha sprayed three weeks after full flower
From the text: Experimental period: 2003 Pome fruit crops treated: apple trees, variety Jonagored. The fruit orchard was sprayed on 9 May, that is, three weeks after full flower (18 April). S-ABA was applied in a dose of 2 g/ha. For the control experiment, the same formulation, but without S-ABA, was used. The number of fruit trees per plot was 10.

[2] = test system: apple trees, variety Boskoop; test: Promoting fruit set, production of parthenocarpic fruits and inhibition of growth in pome fruit, orchard spray trial 2004; conditions: for Number of apples/tree / Number of unclosed buds/tree (crown tip excluded): evaluation 6 Jul. 2004
From the text: Experimental period: 2004 Pome fruit crops treated: apple trees, variety Boskoop The fruit orchard was sprayed on 23 April, that is, during full flower. A further plot was spayed on 20 May 2004. S-ABA was applied in a dose of 2 g/ha. For the control experiment, the same formulation, but with-out S-ABA, was used. The number of fruit trees per plot was 40. The evaluation on 6 Jul. 2004 provided the following results: The buds or shoots in the crown tip of the trees were not taken into account because increased shoot growth frequently occurs in these places due to intensive cutting measures. In general, the growth of shoots in the crown tip is stronger than in the other regions of the tree crown.

[3] = test system: cherry trees, variety Summit; test: Improvement of fruit set in stone fruit, orchard spray trial 2004; conditions: 2 g/ha sprayed one week after flowering
From the text: Experimental period: 2004 Stone fruit crops treated: cherry trees, variety Summit The fruit orchard was sprayed with S-ABA one week after flowering; the dose was 2 g/ha. For the control experiment, the same formulation, but without S-ABA, was used. The number of fruit trees per plot was 5.

[4] = 2 g/ha sprayed 23 April (full flower)

## CC(C=C[C@@]1(O)C(C)=CC(=O)CC1(C)C)=CC(=O)O (stereo in doubt) [S-ABA, (S)-5-(1-hydroxy-2,6,6-trimethyl-4-oxo-2-cyclohexenyl)-3-methyl-cis/trans-2,4-pentanedienoic acid]
[1]
  Apples in grade 75-85 mm: 15.54 kg
  Apples in grade A2++ (75-85 mm): 9.62 kg
  Increase in number of apples per tree as compared to the control: 17%
  Increase in yield (in kg) as compared to the control: 8%
  Increase in yield in the high grades: 84%
  Increase in yield of grade A2++ (optimal fruit color): near doubling of the yield
  Number of apples/tree: 129
[1]; 10 trees per plot
  Yield: 33.37 kg/tree
[2]; 2 g/ha sprayed 20 May
  Number of apples/tree: 42
  Number of unclosed buds/tree (crown tip excluded): 0
[2]; [4]
  Number of apples/tree: 35.4
  Number of unclosed buds/tree (crown tip excluded): 1.66
[2]; plot treated 20 May
  Increase in total number of apples per tree as compared with the control: approximately 21%
[2]; plots treated with S-ABA, independently of the time of treatment
  Closure of buds (inhibition of vegetative growth): almost all buds were closed
[2]; treatment during flowering (23 April)
  Effect on fruit set of treatment during flowering: not adversely affected
[2]; trees treated with 2 g/ha
  Formation of parthenocarpic fruits: parthenocarpic, pipless fruits were formed
[3]
  Formation of parthenocarpic fruits: Parthenocarpic fruits were not observed
  Increase in number of fruits compared to the control plot: near doubling of the number of fruits
  Weight per cherry: not significantly influenced
[3]; 5 trees per plot
  Yield: 25 kg/tree
